In US20120095024A1, “TOLUIDINE SULFONAMIDES AND THEIR USE” (Elara Pharmaceuticals GmbH, priority 2008, published 2012):

Key:
[1] = tested on: caspase-3/7; test: Activation of apoptosis, Caspase-Glo 3/7 in HG-1 cells; type: cell-based; settings: caspase-3/7 activation, 24 h
Description: Activation of caspase-3/7 signal following treatment with test compounds was carried out using a Caspase-Glo® 3/7 kit (Promega). In brief, HG-1 cells were seeded at a concentration of 1000 cells/well in 50 μl medium into 96-well plates and incubated for 24 h under the conditions described previously. Compounds at various concentrations were then added to the wells (at all final concentrations 0.5% DMSO) and incubated for a further 24 h period. The plates were subsequently removed from the incubator and allowed to equilibrate to room temperature, after which 50 μl Caspase-Glo reagent was added to all wells, the plate shaken at 300 rpm for 30 s, and luminescence measured after a 30 min incubation period on an Envision HTS (PerkinElmer).

[2] = tested on: HG1 cells; test: Cell proliferation assay (ATPlite), HG-1; type: cell-based; settings: inhibition of cell proliferation, 72 h
Description: MCF-7 human breast adenocarcinoma cells and HL-60 acute promyelocytic leukaemia cells were obtained from ATCC (LGC Promochem). HG-1 multiple myeloma cells were obtained from Dr. D. Hose (DKFZ Heidelberg). The CellSensor® HRE-bla HCT116 cell line (colorectal carcinoma) was obtained from Invitrogen.
Cells were grown under humidified 95% air, 5% CO2 at 37° C. in Dulbecco's modified Eagle's medium (DMEM: MCF-7) or RPMI 1640 medium (RPMI: HL-60, HG-1) supplemented with 10% fetal bovine serum (FBS), 100 U/ml penicillin and 100 μg/ml streptomycin, 2 mM L-glutamine, and 2 ng/ml IL-6 (for the HG-1 cell line only). The HCT116 cell line was grown under the same atmospheric conditions in McCoy's 5A medium supplemented with 10% FBS and penicillin/streptomycin as above, in addition to blasticidin as a selection marker at a final concentration of 5 μg/ml.
Cell proliferation experiments were carried out in 96-well tissue culture plates with seeding of 2000 cells/well (MCF-7) or 1000 cells/well (HL-60, HG-1) in 100 μl of the relevant medium. Cells were subsequently incubated under the conditions mentioned for 24 h prior to addition of compounds.
For the determination of compound EC50 values, 10 μl compounds at 11× concentrations in 5.5% DMSO were added to the wells at various concentrations yielding a final constant percentage of 0.5% DMSO at the desired 1× compound concentration. As a positive control, cells were treated with 5.5% DMSO. The cells were then incubated for a further 72 h prior to the measurement.
To determine the degree of inhibition of cell proliferation, cells were treated with ATPlite solution according to the manufacturer's instructions (PerkinElmer, ATPlite 1-step Luminescence ATP Detection Assay System) and luciferase readout measured on an Envision HTS multilabel plate reader (PerkinElmer) in luminescence mode according to established protocols. Raw data were imported into an ActivityBase database (IDBS, ID Business Solutions) and EC50 values calculated using the IDBS program ActivityBase XE. Table 2A and 2B show the IC50 values obtained in the above-outlined cell proliferation assay for exemplary compounds of the invention.

[3] = tested on: HIF mediated transcription; test: Inhibition of activation of HIF mediated transcription under hypoxic conditions (CellSensor HRE-bla HCT-116); type: cell-based; settings: Homo sapiens; HRE-bla HCT-116 cells, deferoxamine-induced hypoxia, 24 h
Description: Inhibition of an activated HIF signaling response under chemically-induced hypoxic conditions due to compound treatment was determined using the CellSensor® HRE-bla HCT-116 stably transfected reporter cell line from Invitrogen according to the manufacturer's instructions. HIF is a transcriptional factor composed of the constitutively expressed HIF1β subunit and one of three HIFα subunits (HIF1α, HIF2α, HIF3α). This assay is responsive towards HIFa activity in general. In one example, HIF-1, when stabilized by hypoxic conditions, upregulates several genes to promote cell survival in low-oxygen conditions. These include glycolysis enzymes, which allow ATP synthesis in an oxygen-independent manner, and vascular endothelial growth factor (VEGF), which promotes angiogenesis. HIF-1 acts by binding to HIF-responsive elements (HREs) in promoters that generally contain the sequence NCGTG.
Cells were maintained as described previously and seeded into 384-well, clear-bottom plates (Corning 3712) at 15000 cells/well in 32 μl assay medium (Opti-MEM [Invitrogen], 0.5% FBS, 100 U/ml penicillin, 100 μg/ml streptomycin, 0.1 mM non-essential amino acids [NEAA], 1 mM sodium pyruvate, 5 mM HEPES [pH 7.3]). Following a 2 h incubation period, compounds (4 μl) were subsequently added to the cells at 10× concentrations in 5% DMSO and incubated under normal conditions for 30 min. To induce hypoxic conditions, 4 μl of a 2 mM deferoxamine (DFO) solution was added to the cells followed by 24 h incubation under standard assay conditions (as described). Control wells included wells containing only medium (no cells) and wells treated with 0.5% DMSO instead of compound.
Prior to the readout, the Substrate Loading Solution was prepared as described in the manufacturer's protocol and 10 μl added to each well. Following a further 2 h incubation period at room temperature and in the dark, fluorescence was measured at two wavelengths (blue channel: ex. 409 nm, em. 460 nm; green channel: ex. 409 nm, em. 530 nm) on a PerkinElmer Envision HTS. For the analysis, the average signal of the cell-free wells at 460 nm and 530 nm was first subtracted from the blue and green channel data, respectively. The blue/green emission ratios were then calculated for each well, dividing the background-corrected blue emission values by the background-corrected green emission values. IC50 values were determined from these ratios using GraphPad Prism (Prism 5, GraphPad software, Inc.).

[4] = tested on: MCF7 cells; test: Cell proliferation assay (ATPlite), MCF-7; type: cell-based, human; settings: Homo sapiens, inhibition of cell proliferation, 72 h
How it was run: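 Cells seeded (MCF-7 2000/well, HG-1 1000/well in RPMI with 2 ng/ml IL-6), then after 24 h exposed to compound at 0.5% DMSO final for 72 h. Proliferation read as ATP luminescence (ATPlite); EC50 calculated from the dose-response.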

[5] = tested on: estrogen receptor (ER)-mediated transcriptional activity; test: Inhibition of estrogen receptor (ER) signaling, ERE-tk-luc transfection assay in MCF-7 cells; type: cell-based; settings: Homo sapiens, MCF7, ERE-tk-luc luciferase readout, 24 h
Description: To determine the effect of the compounds on estrogen receptor (ER)-mediated transcriptional activity a transfection assay using the MCF-7 cell line was performed. A luciferase-coupled ERE-tk-luc construct was obtained from Dr. G. Reid (EMBL).
In brief, MCF-7 cells were maintained as described previously and seeded on the first experimental day at a concentration of 3500 cells/well in 100 μl medium and incubated under standard conditions for 24 h. Following this initial incubation period, transfection was carried out using 5 ng of the ERE-tk-luc construct (per well) and Exgene 500 transfection reagent (Fermentas) in a final buffered solution containing 150 mM NaCl and 20 mM Tris pH 8.4. The plates were then maintained for 3-4 hours until cell culture conditions in the incubator before compounds were added at 11× concentrations to yield the final desired compound concentrations in 0.5% DMSO (in the same manner as for the proliferation assays described previously).
After an additional 24 h incubation period the degree of inhibition of ER-signaling was determined via a luciferase readout. Cells were treated with Britelite™ plus solution according to the manufacturer's instructions (PerkinElmer, britelite plus, Ultra-High Sensitivity Luminescence Reporter Gene Assay System) and luciferase levels measured on an Envision HTS multilabel plate reader (PerkinElmer) in luminescence mode according to established protocols. Raw data were imported into an ActivityBase database (IDBS, ID Business Solutions) and IC50 values calculated using the IDBS program ActivityBase XE.

COc1ccc(S(=O)(=O)Nc2cc(-c3ccc(C#N)s3)ccc2C)cc1 [Example 51, N-[5-(5-Cyano-thiophen-2-yl)-2-methyl-phenyl]-4-methoxy-benzenesulfonamide]
< 500 nM: EC50 [1] | EC50 [2] | EC50 [3] | EC50 [4]

Cc1ccc(S(=O)(=O)Nc2cc(-c3ccc(C#N)s3)ccc2C)cc1 [Example 47, N-[5-(5-Cyano-thiophen-2-yl)-2-methyl-phenyl]-4-methyl-benzenesulfonamide]
< 500 nM: EC50 [1] | EC50 [2] | IC50 [5] | EC50 [4]
